In data set [1] the test system is dopamine-β-hydroxylase. The data set is described as follows: Adrenaline content of adrenal gland (dopamine-β-hydroxylase inhibiting effect). It counts as in vivo, male Wister rats. The note with it: Rattus norvegicus, ip, rats, i.p., 4 hours, ± Standard Error, read-out: Amine level, adrenal gland AD (adrenaline). As for the experimental part:
(§1) The dopamine-β-hydroxylase inhibiting effects of the compounds according to the invention were examined by the following tests:
(§2) The tests were performed on male Wister rats weighing 150 to 200 g. The dopamine-β-hydroxylase inhibiting effects of the compounds were evaluated by determining the change of noradrenaline, dopamine and adrenaline levels of the cerebrum, heart, spleen and adrenal gland. The serotonine and 5-hydroxy-indolyl-acetic acid levels of the cerebrum were also determined. The measurements were performed as follows:
(§3) The animals were decapitated, the cerebrum, heart, spleen and adrenal gland were removed quickly, and the organs were frozen by placing them onto a metal sheet cooled with dry ice. The frozen organs were stored for a maximum of one night at -20° C.
Determination of the adrenaline content of adrenal gland
The adrenal glands were freed from fat and homogenized in 3.0 ml of ice-cold 0.4 N perchloric acid. The homogenized mixtures were centrifuged for 10 minutes at 0° C. with a speed of 3200 r.p.m. on a Janetzky K-70 type centrifuge. 0.05 ml samples were taken from the supernatant, and the adrenaline level was determined directly by the method of Laverty et al (Anal. Biochem., Vol. 22, p. 269, 1968).
(§4) In the tests disulfiram, 2,2-dipyridyl, bis(1-methyl-4-homopiperazinyl-thiocarbonyl)-disulfide, sodium diethyldithiocarbamate and N-phenyl-N'-(2-thiazolyl)-thiourea were used as reference substances. The values indicated in Table 1 are percentages in relation to the amine levels of the controls measured in the same tests (± Standard Error). The statistical calculations were performed on a TPA/i type computer, using Student's test.

For data set [2], the system named is dopamine-β-hydroxylase. The data set is described as follows: Noradrenaline, dopamine, serotonine and 5-hydroxy-indolylacetic acid contents of cerebrum (dopamine-β-hydroxylase inhibiting effect). As to conditions: Rattus norvegicus, ip, rats, i.p., 4 hours, ± Standard Error. In kind it is in vivo, male Wister rats. As for the experimental part: as §1, §2, §3
(§5) Noradrenaline was determined according to the method of Shellenberger et al (Anal. Biochem., Vol. 39, p. 356, 1971), with the following modifications of the basic procedure: 0.5 ml of 0.1 molar Na-K-phosphate buffer, containing 9 g/l of EDTA-Na2, were added to 0.5 ml of the eluate, and the catecholamines (noradrenaline in the examination of heart and spleen and noradrenaline and dopamine in the examination of the cerebrum) were oxidized with 0.1 ml of a 0.1 N iodine solution in 5% potassium iodide. […] Thereafter the samples were placed for 5 minutes in a drying oven heated to 100° C., and then the samples were cooled with ice water. The fluorescence of noradrenaline was measured with an OPTON spectrophotometer at wavelengths of 390 nm (excitation) and 490 nm (emission).
Determination of the noradrenaline, dopamine, serotonine and 5-hydroxy-indolylacetic acid contents of cerebrum
The brains were homogenized in 10 parts by volume of 0.4 N perchloric acid. The homogenized mixture was stored at -20° C. overnight; thereafter it was thawed and centrifuged as described above. A sample of homogenized mixture corresponding to 0.5 g of brain was removed, the pH of the sample was adjusted to 8.0±0.1 with 0.1 molar tris-buffer of the above composition, and the sample was processed as described above for the determination of the noradrenaline content of heart and spleen, with the difference that 1.5 ml of 0.05 N perchloric acid were applied as eluting agent. 0.5 ml of the eluate were applied to determine the noradrenaline and dopamine content. The measurement was performed as described above, with the difference that samples of 0.5 ml were applied for the recording of the fluorescence of noradrenaline. The residue was placed for 50 minutes into a drying oven heated to 100° C.; thereafter the sample was cooled with ice water, and the fluorescence of dopamine was recorded at wavelengths of 325 nm (excitation) and 380 nm (emission).
In a further test series the serotonine and 5-hydroxy-indolylacetic acid contents were also determined, in addition to the determination of the noradrenaline and dopamine contents, from the same sample. In this instance the brains were homogenized in 10 ml of 75% ethanol, 0.2 ml of EDTA-Na2 and 5% of ascorbic acid were added to the homogenized mixtures, and the homogenized mixtures were maintained at -20° C. overnight. The mixtures were then centrifuged as described above, and 5.0 ml samples of the supernatant were removed. The samples were diluted with equal volumes of distilled water, and poured onto ion-exchange columns of 0.5×1.5 cm dimensions, filled with buffered Amberlite CG-30 (200 to 400 mesh). The columns were washed with 5 ml of distilled water followed with 1.0 ml of 0.2 N hydrochloric acid, and the first effluent and the aqueous wash were collected for the determination of 5-hydroxy-indolylacetic acid. Elution was continued with further 1.2 ml of 0.2 N hydrochloric acid in order to remove noradrenaline, dopamine and serotonine. Samples of 0.3 ml were used for the determinations. […]

Another data set is described as follows: in vivo. As to conditions: mouse, ip.
For data set [3], the system named is dopamine-β-hydroxylase. The data set is described as follows: Noradrenaline content of spleen (dopamine-β-hydroxylase inhibiting effect). In kind it is in vivo, male Wister rats. As to conditions: Rattus norvegicus, ip, rats, i.p., 4 hours, ± Standard Error, read-out: Amine level, spleen NA (noradrenaline). As for the experimental part:
as §1, §2, §3
(§6) Determination of the noradrenaline content of heart and spleen
(§7) The organs were weighed in frozen state and then homogenized in 5.0 ml of 0.4 N perchloric acid containing 0.05% of EDTA-Na2 and 0.1% of Na2 S2 O5. The homogenized mixtures were centrifuged as described above for the treatment of adrenal gland, the supernatants were decanted, and the pH was adjusted to 8.0±0.1 with a 0.1 molar tris buffer containing 20 g/l of NaOH and 25 g/l of EDTA-Na2. 100 mg of prepared Al2 O3 (Anton et al: J. Pharm. Ther., Vol. 138, p. 360, 1962) were added to the samples, and the mixtures were shaken mechanically for 20 minutes. Thereafter the Al2 O3 were washed with 2.10 ml of distilled water, and the noradrenaline was eluted with 1.0 ml of 0.05 N perchloric acid. 0.5 ml samples of the eluate were applied for the determination of noradrenaline.
as §5, §4

The test system of data set [4] is dopamine-β-hydroxylase. The data set is described as follows: Noradrenaline content of heart (dopamine-β-hydroxylase inhibiting effect). In kind it is in vivo, male Wister rats. The note with it: Rattus norvegicus, ip, rats, i.p., 4 hours, ± Standard Error, read-out: Amine level, heart NA (noradrenaline). As for the experimental part:
as §1, §2, §3, §6, §7, §5, §4

Data set [5] deals with dopamine-β-hydroxylase. The note with it: in words, prior art; cited from earlier work.
Where [6] appears, read: read-out: Amine level, cerebrum DA (dopamine).
Where [7] appears, read: read-out: Amine level, cerebrum NA (noradrenaline).
Where [8] appears, read: read-out: Amine level, cerebrum SE (serotonine).
[9] abbreviates: read-out: Level, cerebrum 5-HIAA (5-hydroxy-indolylacetic acid).

For `C=CCNC1=C(C(=S)S)CCC1` [Compound M-2, 2-(N-allyl)-amino-cyclopent-1-ene-dithiocarboxylic acid], the response vs control in vivo at 100 mg/kg with dopamine-β-hydroxylase [1] came to 103 ± 7.6%; in the data set on dopamine-β-hydroxylase [2] (setting [6]), 108 ± 2.9%; in the data set on dopamine-β-hydroxylase [2] (setting [7]) it was 78.6 ± 3.3%; in the data set on dopamine-β-hydroxylase [2] (setting [8]), 118 ± 5.7%; in the data set with dopamine-β-hydroxylase [3] it was 74.5 ± 10.2%; in the data set on dopamine-β-hydroxylase [4], 81.3 ± 5.1%. Besides, the response vs control in vivo at 200 mg/kg in the data set on dopamine-β-hydroxylase [1] is 71.9 ± 4.7%; with dopamine-β-hydroxylase [2] (setting [6]), 119 ± 7%; with dopamine-β-hydroxylase [2] (setting [7]) it was 71.1 ± 3.9%; with dopamine-β-hydroxylase [2] (setting [8]) it was 109 ± 5.9%; with dopamine-β-hydroxylase [3] it was 89.9 ± 11%; in the data set on dopamine-β-hydroxylase [4], 123 ± 11.9%. This compound gave an LD50 in “in vivo” of around 500 mg/kg.
For the compound `OCCNC1=C(C(=S)S)CCC1` [Compound M-4, 2-(N-hydroxyethyl)-amino-cyclopent-1-ene-dithiocarboxylic acid], the response vs control in vivo at 100 mg/kg worked out at 82.7 ± 4.2% with dopamine-β-hydroxylase [1]; 110 ± 3.5% in the data set with dopamine-β-hydroxylase [2] (setting [6]); 65.4 ± 4.9% in the data set on dopamine-β-hydroxylase [2] (setting [7]); 110 ± 3.3% in the data set on dopamine-β-hydroxylase [2] (setting [8]); 81.4 ± 9.4% with dopamine-β-hydroxylase [3]; 85 ± 9.7% in the data set with dopamine-β-hydroxylase [4]. Also, the response vs control in vivo at 200 mg/kg in the data set on dopamine-β-hydroxylase [1] was found to be 93.4 ± 7.5%; with dopamine-β-hydroxylase [2] (setting [6]) it was 126 ± 2.5%; in the data set on dopamine-β-hydroxylase [2] (setting [7]) it was 41.6 ± 2%; in the data set on dopamine-β-hydroxylase [2] (setting [8]), 122 ± 10.5%; in the data set with dopamine-β-hydroxylase [2] (setting [9]), 132 ± 12.6%; in the data set with dopamine-β-hydroxylase [3], 98.4 ± 17.1%. The response vs control in vivo at 200 mg/kg with dopamine-β-hydroxylase [4] came out at 75.4 ± 8.3%. Besides, the LD50 in the data set “in vivo” is around 800 mg/kg.
Consider `NC(CCCNC1=C(C(=S)S)CCC1)C(=O)O` (stereo not drawn) [Compound M-5, 2-[N-(4-carboxy-4-amino)-butyl]-amino-cyclopent-1-ene-dithiocarboxylicacid], for which the response vs control in vivo at 100 mg/kg with dopamine-β-hydroxylase [1] stood at 69.4 ± 4%; in the data set on dopamine-β-hydroxylase [2] (setting [6]) it was 100 ± 4.8%; with dopamine-β-hydroxylase [2] (setting [7]), 81.7 ± 4.5%; in the data set on dopamine-β-hydroxylase [2] (setting [8]) it was 110 ± 4.1%; in the data set on dopamine-β-hydroxylase [3] it was 76.4 ± 11.1%; with dopamine-β-hydroxylase [4], 98.4 ± 5.4%. The response vs control in vivo at 200 mg/kg came out at 70.7 ± 3.3% in the data set with dopamine-β-hydroxylase [1]; 102 ± 1.8% in the data set on dopamine-β-hydroxylase [2] (setting [6]); 69.3 ± 2.9% with dopamine-β-hydroxylase [2] (setting [7]); 114 ± 3.6% in the data set on dopamine-β-hydroxylase [2] (setting [8]); 141 ± 10% in the data set with dopamine-β-hydroxylase [2] (setting [9]); 67.1 ± 6.2% with dopamine-β-hydroxylase [3]. In the data set with dopamine-β-hydroxylase [4], the response vs control in vivo at 200 mg/kg was 75 ± 10.6%. This compound registered a 50% lethal dose (LD50) in “in vivo” of around 700 mg/kg.
On to `S=C(S)C1=C(NC2CCCCC2)CCC1` [Compound M-6, 2-(N-cyclohexyl)-amino-cyclopent-1-ene-dithiocarboxylic acid], for which the response vs control in vivo at 200 mg/kg with dopamine-β-hydroxylase [1] came out at 94.9 ± 3.4%; with dopamine-β-hydroxylase [2] (setting [6]) it was 107 ± 5.6%; in the data set with dopamine-β-hydroxylase [2] (setting [7]), 40.7 ± 1.1%; in the data set with dopamine-β-hydroxylase [2] (setting [8]), 101 ± 5.1%; with dopamine-β-hydroxylase [2] (setting [9]), 150 ± 8.5%; in the data set on dopamine-β-hydroxylase [3], 98.1 ± 13.7%. Also, the response vs control in vivo at 200 mg/kg with dopamine-β-hydroxylase [4] turned out to be 92.7 ± 6.5%. Moreover, in the data set “in vivo”, the LD50 was above 1000 mg/kg.
`NC(CCCCNC1=C(C(=S)S)CCC1)C(=O)O` (stereo not drawn) [Compound M-7, 2-[N-(5-carboxy-5-amino)-pentyl]-amino-cyclopent-1-ene-dithiocarboxylic ac id]: the response vs control in vivo at 200 mg/kg was 79.5 ± 6.5% in the data set on dopamine-β-hydroxylase [1]; 106 ± 7.2% in the data set on dopamine-β-hydroxylase [2] (setting [6]); 65.8 ± 3% in the data set with dopamine-β-hydroxylase [2] (setting [7]); 99.7 ± 6.8% in the data set with dopamine-β-hydroxylase [2] (setting [8]); 153 ± 13% in the data set with dopamine-β-hydroxylase [2] (setting [9]); 85.3 ± 17.7% with dopamine-β-hydroxylase [3]. Also, the response vs control in vivo at 200 mg/kg with dopamine-β-hydroxylase [4] amounted to 95.6 ± 8.5%. In the data set “in vivo”, this compound displayed an LD50 of around 900 mg/kg.
Consider `S=C(S)C1=C(Nc2ccccc2)CCC1` [Compound M-8, 2-(N-phenyl)-amino-cyclopent-1-ene-dithiocarboxylic acid], for which the response vs control in vivo at 200 mg/kg amounted to 88.4 ± 4.6% with dopamine-β-hydroxylase [1]; 97.3 ± 7.1% with dopamine-β-hydroxylase [2] (setting [6]); 75.6 ± 4.6% in the data set with dopamine-β-hydroxylase [2] (setting [7]); 102 ± 7.9% in the data set with dopamine-β-hydroxylase [2] (setting [8]); 135 ± 10% in the data set on dopamine-β-hydroxylase [2] (setting [9]); 71.3 ± 12.8% in the data set with dopamine-β-hydroxylase [3]. Moreover, in the data set on dopamine-β-hydroxylase [4], the response vs control in vivo at 200 mg/kg was 99.9 ± 2.9%. For the same compound, the LD50 in “in vivo” was above 1000 mg/kg.
As for `CN1CCCN(C(=S)SSC(=S)N2CCCN(C)CC2)CC1` [FLA-63, bis(1-methyl-4-homopiperazinyl)-thiocarbonyl-disulfide], the “dopamine-β-hydroxylase inhibition in vivo” value in the data set with dopamine-β-hydroxylase [5] is on record as “one of the most potent dopamine-β-hydroxylase inhibitors in vivo”.
